Test results as given in patent US9914760B2, “Methods of identifying, isolating and using odorant and aroma receptors” (Firmenich SA, priority 2013, dated 2018).

How the values were obtained:
Assay in all cases: cell-based calcium-flux assay, HEK293T with Gα15
OR5AC2 = molecular target: T1, OR5AC2 (Homo sapiens, UniProt Q9NZP5); conditions: dose-response curves FIG. 6D-J
T1 construct: expressed in transfected cells
T1 sequence (Q9NZP5 1-309): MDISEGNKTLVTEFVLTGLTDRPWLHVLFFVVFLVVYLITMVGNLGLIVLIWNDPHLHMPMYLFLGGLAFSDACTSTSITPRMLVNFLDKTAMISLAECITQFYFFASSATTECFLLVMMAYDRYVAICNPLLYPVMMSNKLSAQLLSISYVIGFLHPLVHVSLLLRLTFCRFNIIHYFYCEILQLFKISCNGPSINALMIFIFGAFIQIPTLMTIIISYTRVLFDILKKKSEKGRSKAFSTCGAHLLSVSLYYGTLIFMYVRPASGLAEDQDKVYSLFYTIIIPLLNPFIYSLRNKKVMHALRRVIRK
Source text: (§1) The activity of candidate human indole and skatole malodors receptors OR52N2 (SEQ ID NO: 11 and SEQ ID NO: 12), OR11G2 (SEQ ID NO: 13 and SEQ ID NO: 14, OR5AC2 (SEQ ID NO: 75 and SEQ ID NO: 76), OR4C15 (SEQ ID NO: 79 and SEQ ID NO: 80), OR8S1 (SEQ ID NO: 83 and SEQ ID NO: 84), OR11H6 (SEQ ID NO: 15 and SEQ ID NO: 16) and OR11H4 (SEQ ID NO: 49 and SEQ ID NO: 50) and candidate mouse indole and skatole malodors receptors Olfr665 (SEQ ID NO: 9 and SEQ ID NO 10) and Olfr740 (SEQ ID NO: 1 and SEQ ID NO 2) were confirmed in cell-based calcium-flux assays (FIGS. 6A to 6J). Cells stably co-expressing Rho-tagged human OR52N2 (FIG. 6A, B) or OR11G2 (FIG. 6C) and Gα15 (SEQ ID NO: 25) were exposed to increasing concentrations of skatole or indole. FIG. 6B is a repeat experiment showing similar activity of OR52N2 with indole and skatole. Odorant-induced OR52N2 or OR11G2 activity was detected by measuring the maximum Calcium 5 dye (Molecular Devices) fluorescence change following odorant exposure. Activity is defined as the baseline corrected Relative Fluorescent Units (RFU) ratios normalized to the highest RFU in the experiment in FIG. 6A. […] A cell line lacking a receptor, for example hOR52N2, was used as a control for non-specific activity at high concentrations (‘Indole control’ and ‘Skatole control’). The human receptor OR52N2 (SEQ ID NO: 11 and SEQ ID NO: 12) was identified because of its sequence similarity to mouse Olfr665 (SEQ ID NO: 10), an indole/skatole receptor isolated from olfactory neurons responding to both indole and skatole. The human receptor OR11G2 (SEQ ID NO: 13 and SEQ ID NO: 14) was identified because of its sequence similarity to mouse Olfr740 (SEQ ID NO: 2), an indole/skatole receptor isolated from olfactory neurons responding to both indole and skatole. The receptors were modified with the Rho sequence and stably expressed in HEK 293T cells. Further examples show indole and skatole dose-response curves for human receptors OR5AC2, OR4C15, OR8S1, OR11H6, OR11H4 and mouse receptors Olfr665 and Olfr740 (FIG. 6D-J). The human receptor OR5AC2 (SEQ ID NO: 75 and SEQ ID NO: 76) was identified because of its sequence similarity to mouse Olfr207 (SEQ ID NO: 78), a receptor isolated from olfactory neurons responding to both indole and skatole. The human receptor OR4C15 (SEQ ID NO: 79 and SEQ ID NO: 80) was identified because of its sequence similarity to mouse Olfr211 (SEQ ID NO: 82), a receptor isolated from olfactory neurons responding to both indole and skatole. The human receptor OR8S1 (SEQ ID NO: 83 and SEQ ID NO: 84) was identified because of its sequence similarity to mouse Olfr257 (SEQ ID NO: 86), a receptor isolated from olfactory neurons responding to both indole and skatole. The human receptor OR11H6 (SEQ ID NO: 15 and SEQ ID NO: 16) was identified because of its sequence similarity to mouse Olfr745 (SEQ ID NO: 8), a receptor isolated from olfactory neurons responding to both indole and skatole. The human receptor OR11H4 (SEQ ID NO: 49 and SEQ ID NO: 50) was identified because of its sequence similarity to mouse Olfr746 (SEQ ID NO: 38), a receptor isolated from olfactory neurons responding to both indole and skatole. The mouse receptor Olfr665 (SEQ ID NO: 9 and SEQ ID NO: 10) was identified directly from NGS data from isolated olfactory neurons responding to both indole and skatole. The mouse receptor Olfr740 (SEQ ID NO: 1 and SEQ ID NO: 2) was identified directly from NGS data from isolated olfactory neurons responding to both indole and skatole. Co-expression of the human G alpha subunit Gα15 activates the Gq transduction pathway that leads to an internal Ca2+ increase upon binding to the appropriate ligand.

OR8S1 = molecular target: T2, OR8S1 (Homo sapiens, UniProt Q8NH09); conditions: dose-response curves FIG. 6D-J
T2 construct: expressed in transfected cells
T2 sequence (Q8NH09 1-359): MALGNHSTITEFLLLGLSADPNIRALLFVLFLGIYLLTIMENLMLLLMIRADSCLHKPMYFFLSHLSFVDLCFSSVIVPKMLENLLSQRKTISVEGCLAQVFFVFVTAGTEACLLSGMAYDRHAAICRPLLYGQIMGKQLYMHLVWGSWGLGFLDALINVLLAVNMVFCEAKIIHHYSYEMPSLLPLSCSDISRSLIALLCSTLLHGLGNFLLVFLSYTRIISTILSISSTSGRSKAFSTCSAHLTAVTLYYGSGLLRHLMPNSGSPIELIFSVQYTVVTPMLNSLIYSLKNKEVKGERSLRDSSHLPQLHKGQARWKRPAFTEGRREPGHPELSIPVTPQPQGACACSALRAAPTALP
Source text: as §1

OR11G2 = molecular target: T3, OR11G2 (Homo sapiens, UniProt Q8NGC1); conditions: increasing concentrations; FIG. 6C
T3 construct: expressed in transfected cells
T3 sequence (Q8NGC1 35-345): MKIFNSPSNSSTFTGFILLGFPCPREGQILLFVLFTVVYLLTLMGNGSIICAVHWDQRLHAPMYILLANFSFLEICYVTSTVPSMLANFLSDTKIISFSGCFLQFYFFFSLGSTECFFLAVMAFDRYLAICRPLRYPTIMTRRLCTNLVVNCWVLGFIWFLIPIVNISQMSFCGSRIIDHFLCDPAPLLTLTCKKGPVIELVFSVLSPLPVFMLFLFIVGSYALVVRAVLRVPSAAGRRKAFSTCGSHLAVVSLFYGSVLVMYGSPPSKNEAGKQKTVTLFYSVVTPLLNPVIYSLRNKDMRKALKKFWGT
Source text: as §1

Row | Structure (SMILES) | receptor response in vitro (OR5AC2) | receptor response in vitro (OR8S1) | receptor activity (Calcium 5 dye fluorescence change) (OR11G2)
1 | c1ccc2[nH]ccc2c1 [indole] | responded | responded | dose-dependent increase of receptor activity
2 | Cc1c[nH]c2ccccc12 [skatole, 3-methyl indole] | responded | responded | dose-dependent increase of receptor activity
